From patent US8785434B2, “Antiviral compounds” (Prosetta Antiviral Inc., priority 2010, dated 2014)

Test system: respiratory viruses (Corona Virus on MRC5 Cells, Influenza Virus A on MDCK Cells, Respiratory Syncytial Virus on HEp2 cells, Adenovirus serotype 5 on A549 …)
Assay: Respiratory viruses: virus grown in the presence of compound, infectious virus titrated by TCID50
Type: cell-based
Conditions: qualitative statement; compound tested at 10 μM, 2 μM, 0.4 μM and 0.08 μM
Protocol: The activities of compounds of the invention were determined for the following viruses using the protocol below:
Corona Virus on MRC5 Cells
Influenza Virus A on MDCK Cells
Respiratory Syncytial Virus on HEp2 cells
Adenovirus serotype 5 on A549 cells
Human Rhinovirus on H1Hela Cells
Herpes Simplex Virus 1 on Vero cells
Virus was grown in the presence of four dilutions (10 μM, 2 μM, 0.4 μM and 0.08 μM) of the chemical compound tested with two controls using standard methods and materials for the relevant virus. The infected cell extract was collected using known methods, and the infectious virus concentration was determined using standard techniques.
Each well was titrated by TCID50. Four serial dilutions in quadruplicate required to determine the titer of each well. To assay 36 replicates as directed, one hundred eight (108) 96-well plates will be required. Each drug was tested at four dilutions against one virus will require TCID50 titers of 18 sample wells.

SMILES: Cc1cc(N(C)C)cc2[s+]c3cc(N4CCN(C)CC4)cc(C)c3nc12.[I-] [3-(Dimethylamino)-1,9-dimethyl-7-(4-methylpiperazin-1-yl)phenothiazin-5-ium iodide]
- activity across all of the respiratory viruses tested (pan-respiratory anti-viral activity): surprisingly strong activity across all of the respiratory viruses tested
